Test results: the NIST ThermoML archive (doi:10.1021/je300405a)

Details: Liquid; for mass density: Vibrating tube method; for speed of sound: Pulse-echo method

CCCCCCCCCC(=O)OCC [ethyl decanoate]
Details	mass density, 343.15 K [kg/m3]	mass density, 353.15 K [kg/m3]	mass density, 363.15 K [kg/m3]	mass density, 373.15 K [kg/m3]	mass density, 383.15 K [kg/m3]	mass density, 393.15 K [kg/m3]	speed of sound, 343.15 K [m/s]	speed of sound, 363.15 K [m/s]	speed of sound, 383.15 K [m/s]	speed of sound, 403.15 K [m/s]
101.3 kPa	–	814.4	806.38	797.32	789.45	780.85	–	1065.9	1001.3	937.8
10000 kPa	–	823.62	815.94	807.87	800.55	792.15	–	1130.1	1071.1	1013.4
20000 kPa	–	832.14	824.71	817.14	810.35	802.27	–	1188.5	1132.9	1080.3
30000 kPa	–	839.63	832.73	825.49	819.06	811.47	–	1241.2	1188.3	1138.6
40000 kPa	–	846.7	840.08	833.44	826.96	819.79	–	1289.6	1239.3	1191.3
50000 kPa	–	853.22	846.82	840.48	834.28	827.43	–	1334.7	1286.4	1240.5
60000 kPa	–	859.34	853.11	847.06	841.17	834.45	–	1376.5	1329.7	1285.9
70000 kPa	871.46	865.16	859.26	853.14	847.62	840.99	–	1415.4	1370.2	1328.1
80000 kPa	876.76	870.61	864.82	859.2	853.58	847.2	1500.3	1452.8	1408.3	1367.6
90000 kPa	881.86	875.77	870.11	864.65	859.32	852.99	1535.3	1488.9	1445	1404.6
100000 kPa	886.72	880.75	875.14	869.76	864.87	858.42	1568.4	1522.8	1480	1439.8
110000 kPa	–	–	–	–	–	–	1600.4	1556	1513.4	1473.4
120000 kPa	–	–	–	–	–	–	1631.5	1586.9	1545.8	1506.4
130000 kPa	–	–	–	–	–	–	1661.5	1617.1	1576.6	1537.5
140000 kPa	–	–	–	–	–	–	1690	1646.6	1606.2	1567.3
150000 kPa	–	–	–	–	–	–	1717.3	1675.1	1634.6	1596.2
170000 kPa	–	–	–	–	–	–	1769.7	1727.6	1687.7	1650.9
190000 kPa	–	–	–	–	–	–	1818.5	1777	1740.7	1702.8
210000 kPa	–	–	–	–	–	–	1865	1824.5	1786.8	1751.8
